The source of these data is PMC10003747, “A Novel Homodimer Peptide–Drug Conjugate Improves the Efficacy of HER2-Positive Breast Cancer Therapy” (International Journal of Molecular Sciences, 2023).

The test system of one series is BALB/c nude mice. Briefly: In vivo safety: body weight and H&E staining of major organs. To be noted: 5 mg/kg equivalent DOX i.v., five times every two days; for body weight change versus PBS group: n = 4; for H&E histology of major organs: compared with PBS group. On the procedure: (§1) In vivo anti-tumor studies were evaluated by using SKBR-3 xenografted (BALB/c nude) mice treated with the PDC, free DOX, or saline. […] Additionally, histological examination of the tumors was performed. […] A TUNEL assay indicated a greater number of apoptotic cells after treatments with the PDC group compared to the free DOX group and reduced the offtarget effects (Figure 5d).
Good biocompatibility and the acceptable biosafety of a drug are essential for its biological application. […] The PDC had higher in vivo anti-tumor efficacy than DOX without apparent toxicities.
(§2) In this study, a total of 12 female BALB/c mice (22–24 g) were used, and all animal experiments were conducted in compliance with the ethical guidelines approved by the ethics committee of Fujian Medical University. Approximately 2 × 10^6 SKBR-3 cells were injected subcutaneously in the right hind limb of the nude mice. Upon the tumor reaching a volume of around 100 mm^3, the mice were randomly allocated into three groups (n = 4) and administered through the tail vein with PBS, free DOX solution, and PDC solution (5 mg/kg equivalent DOX), respectively, five times every two days. Saline was used as a negative control. After each administration, the size and weight of the tumor were assessed. Subsequently, the mice were euthanized, and their tumor tissues and other major organs were dissected and preserved with 4% formaldehyde. Paraffin sections were then produced, and the fixed paraffin-embedded tissues were sliced into 5 μm sections for hematoxylin and eosin (H&E) and TUNEL (terminal deoxynucleotidyl transferase dUTP nick-end labeling) analyses.

Series [1] relates to SKBR-3 xenografted (BALB/c nude) mice. Briefly: In vivo anti-tumor study. The conditions noted are these: SKBR-3 xenograft, 5 mg/kg equivalent DOX, tail vein, five times every two days, n = 4, day 14. On the procedure: as §1
as §2, with “Paraffin sections were then produced, and the fixed paraffin-embedded tissues were sliced into 5 μm sections for hematoxylin and eosin (H&E) and TUNEL (terminal deoxynucleotidyl transferase dUTP nick-end labeling) analyses.” left out

In series [2] the test system is SKBR-3 cells. Description: Cellular uptake and lysosome colocalization by CLSM. The class given is cell-based, human. On the procedure:
To assess the uptake efficiency of the PDC in tumor cells, human breast cancer cell lines SKBR-3 (high expression of HER2) were used as positive cells, and the MCF-7 cell line was used as a negative control. […] Along with the incubation time, DOX escaped from the lysosomes, and brighter red fluorescence was detected in the nuclei after 8 h of incubation (Figure 4a). It has been observed that peptide conjugates in the acidic environment of endosomes/lysosomes undergo hydrolysis at the acid-response hydrazone linker, thereby releasing DOX into cells, which is in line with prior reports. […] The lysosomal escape ability was evaluated by the localization of the PDC and lysosomes in SKBR-3 cells (Figure 4c), evidenced by the separation of red (DOX) and green (LysoTracker) fluorescence.
Cultures of SKBR-3 and MCF-7 cells were established in DMEM medium supplemented with 10% fetal bovine serum, 100 U/mL penicillin, and 100 μg/mL streptomycin at 37 °C and 5% CO2. Approximately 1 × 10^5 cells/mL were seeded into culture dishes and incubated overnight. Subsequently, 0.5 mg/mL PDC was added and incubated for 2–8 h in conjunction with an equal amount of free DOX as a control. […] Finally, confocal fluorescence images were obtained using a Zeiss 710 system. […]

A short description of series [3]: In vitro DOX release from the PDC (dialysis in PBS). The class given is physicochemical. The conditions noted are these: fluorescence at 589 nm. An excerpt:
(§3) Based on the specific acidic tumor microenvironment (pH5.4–7.0), an acid-responsive linker was designed to undergo acid hydrolysis after cellular uptake, releasing the drug into endosomes or lysosomes to achieve site-specific delivery. It is theoretically possible that a HPD with an acid-sensitive hydrazone bond can display a regulated release behavior when the external pH value is altered. As observed from the drug release profile in Figure 3a, the PDC remains structurally stable in PBS at a pH of 7.4, as only about 35% of DOX is released within 24 h. In contrast, when the pH of PBS is reduced to 5.8, there is an explosive release of DOX in acidic media due to the pH-sensitive hydrolysis of the […] bond between DOX and the EMCH linker. […] Figure 3b illustrates that the cytotoxicity of the PDC and free DOX on SKBR-3 cells augmented with prolonged incubation time. When the equivalent concentration was 1 μM, the viability of SKBR-3 cells in the PDC group was 26.3%. […] To determine if our novel conjugate could enhance the effect of DOX through PEGylation and HER2-receptor-mediated internalization, we tested the cytotoxic effect of the PDC on MCF-7 and SKBR-3 breast cancer cells.
To quantify the amount of DOX released from the PDC, 1 mg of the substance was dissolved in 2 mL of ultra-pure water and placed into a dialysis bag (MWCO 1000 Da). This bag was then transferred to a tube containing 10 mL of PBS solution with varying pH values (7.4 and 5.8). The tube was stirred at 37 °C in the dark and samples of the PBS solution were collected at different intervals. Subsequently, a new 10 mL of PBS was added to the tube after each sample. The samples were analyzed for released DOX concentration using a fluorescence spectrophotometer at 589 nm and the DOX concentration was calculated based on a standard curve. The PDC was incubated with human plasma (final peptide concentration of 50 μM) for 0, 2, 4, 8, 12, 24, and 48 h in order to assess the stability of the conjugate. Then, […] of the solution was mixed with […] of methanol to terminate enzymatic hydrolyses. After centrifugation at 13,000× g for 10 min, the supernatant was collected and the intact percentage of the PDC was detected by HPLC [19].

Series [4] is described as follows: Stability of the PDC in human serum/plasma by HPLC. The format is in vitro ADME. To be noted: human serum (methods: human plasma), 37 °C. An excerpt: HP (calcd Mw: 3183.7) was successfully synthesized by using solid-phase peptide synthesis (SPPS), and the peptides were cleaved and purified by HPLC (Figure S2) afterward and verified by using electrospray ionization mass spectrometry examinations (Figure 2a). […] The mass charge ratio (m/z) obtained by the experiment is consistent with the theoretical m/z. […] Polyethylene glycol (PEG) has been widely used to modify small molecules to slow renal clearance and to increase the half-life. It is essential that the PDC be maintained in a steady circulation to prevent pre-release of cytotoxic payloads, resulting in systemic toxicity. […] To assess plasma stability, the PDC was incubated with human serum at 37 °C from 0 to 48 h, and aliquots were taken at different time points and analyzed by using HPLC. […]
To quantify the amount of DOX released from the PDC, 1 mg of the substance was dissolved in 2 mL of ultra-pure water and placed into a dialysis bag (MWCO 1000 Da). […] The samples were analyzed for released DOX concentration using a fluorescence spectrophotometer at 589 nm and the DOX concentration was calculated based on a standard curve. […] After centrifugation at 13,000× g for 10 min, the supernatant was collected and the intact percentage of the PDC was detected by HPLC [19].

In series [5] the test system is SKBR-3 cells. Briefly: Cytotoxicity assay (CCK8 kit). To be noted: for IC50: 48 h incubation, 0 to 1 μM, CCK8, from dose response log curves. The class given is cell-based, human.
From the text: as §3
Cultures of SKBR-3 and MCF-7 cells were established in DMEM medium supplemented with 10% fetal bovine serum, 100 U/mL penicillin, and 100 μg/mL streptomycin at 37 °C and 5% CO2. Approximately 1 × 10^5 cells/mL were seeded into culture dishes and incubated overnight. Subsequently, 0.5 mg/mL PDC was added and incubated for 2–8 h in conjunction with an equal amount of free DOX as a control. After washing three times with PBS, Hoechst 33342 and LysoTracker Green DND-26 were added to stain the nucleus and lysosome for 15 min, followed by three additional washes with PBS. Finally, confocal fluorescence images were obtained using a Zeiss 710 system. SKBR-3 cells were seeded in a 96-well culture plate at a density of 5000 cells per well and incubated for 24 h. Afterwards, cytotoxicity investigations were conducted by incubating the cells with the PDC and free DOX (in concentrations from 0 to 1 μM) for 48 h. Then, the CCK8 kit was used to detect cell survival.

Each structure is given as a SMILES string.

On to `COc1cccc2c1C(=O)c1c(O)c3c(c(O)c1C2=O)C[C@@](O)(C(CO)=NNC(=O)CCCCCN1C(=O)CC(SC[C@H](NC(=O)CCOCCOCCOCCOCCNC(=O)[C@H](CCCCNC(=O)CCOCCOCCOCCOCCNC(=O)[C@H](CCCCN)NC(=O)[C@H](CC(C)C)NC(=O)[C@H](CCCNC(=N)N)NC(=O)[C@H](CC(C)C)NC(=O)[C@H](CCC(=O)O)NC(=O)[C@H](Cc2c[nH]c4ccccc24)NC(=O)[C@H](CC(N)=O)NC(=O)[C@@H](N)CCCNC(=N)N)NC(=O)CCOCCOCCOCCOCCNC(=O)[C@H](CCCCN)NC(=O)[C@H](CC(C)C)NC(=O)[C@H](CCCNC(=N)N)NC(=O)[C@H](CC(C)C)NC(=O)[C@H](CCC(=O)O)NC(=O)[C@H](Cc2c[nH]c4ccccc24)NC(=O)[C@H](CC(N)=O)NC(=O)[C@@H](N)CCCNC(=N)N)C(=O)O)C1=O)C[C@@H]3O[C@H]1C[C@H](N)[C@H](O)[C@H](C)O1` (stereo partly shown) [PDC], for which, in the series on BALB/c nude mice, the “body weight change versus PBS group” value is on record as “no noteworthy distinction in body weight” and the “H&E histology of major organs” value is “no morphological aberrations in organ tissues”. Also, the “reduction of tumor growth on day 14 post treatment” value in series [1] was 51.1 ± 3.1%. Moreover, the “uptake of the PDC in SKBR-3 versus MCF-7 cells” value in the series on SKBR-3 cells [2] (CLSM, Figure S3, HER2 negative MCF-7) is “higher uptake rate”. In the series with SKBR-3 cells [2] (HER2-positive SKBR-3 cells), the “cellular uptake relative to free DOX” value is recorded as 2.9 times. In series [3] (PBS pH 5.8, 37 °C, dialysis MWCO 1000 Da, 8 h), the “DOX released within 8 h, pH 5.8” value amounted to 78%. Besides, the “DOX released within 24 h, pH 5.8” value in series [3] (PBS pH 5.8, 37 °C, dialysis MWCO 1000 Da, 24 h) is listed as about 90%. Besides, the “DOX released, pH 5.8, start of the rise” value in series [3] (PBS pH 5.8, 37 °C, dialysis MWCO 1000 Da, early value, time not given) is “around 20%”. In addition, the “DOX released within 24 h, pH 7.4” value in series [3] (PBS pH 7.4, 37 °C, dark, dialysis bag MWCO 1000 Da, 1 mg in 2 mL water against 10 mL PBS, 24 h) is recorded as “about 35%”. Moreover, the half-life at 50 μM in series [4] (50 μM final peptide concentration, 0-48 h, methanol quench, intact PDC by HPLC, read-out: half-life of the conjugate (converted)) is about 24 h. Besides, the amount remaining at 48 h, 50 μM in series [4] (50 μM, 48 h incubation, HPLC, read-out: intact conjugate remaining at 48 h) is about 15%. For the same compound, the “cytotoxic effect on SKBR-3 versus MCF-7 breast cancer cells” value in the series with SKBR-3 cells [5] (48 h, Figure S4, HER2 high-expression SKBR-3 vs MCF-7) was “significantly more cytotoxic in the HER2 high-expression cell lines”. Further, the “IC50 of the PDC relative to free DOX” value in the series with SKBR-3 cells [5] (SKBR-3 cells, 48 h) is reported as “three times less”. The same compound had an IC50 in the series with SKBR-3 cells [5] (SKBR-3 cells) of 143 nM. Besides, in the series with SKBR-3 cells [5] (equivalent concentration 1 μM, 48 h, CCK8), the “viability of SKBR-3 cells” value worked out at 26.3%.
With `COc1cccc2c1C(=O)c1c(O)c3c(c(O)c1C2=O)C[C@@](O)(C(=O)CO)C[C@@H]3O[C@H]1C[C@H](N)[C@H](O)[C@H](C)O1.Cl` [free DOX, doxorubicin hydrochloride, reference compound], in the series with BALB/c nude mice, the “body weight change versus PBS group” value is listed as “significantly decreased” and the “H&E histology of major organs” value is reported as “clear cardiotoxicities”. Moreover, the “reduction of tumor growth on day 14 post treatment” value in series [1] came to 23.13 ± 2.4%. Also, in the series with SKBR-3 cells [5] (SKBR-3 cells), the IC50 is 410 nM.
